From the supplement of paper PMC10307832

Legend:
Experiment in all cases: relative viability (nuclei count vs DMSO), 5 days (fraction); higher = more cells survive
Entinostat + Pictilisib = compound: Nc1ccccc1NC(=O)c1ccc(CNC(=O)OCc2cccnc2)cc1 [Entinostat] + CS(=O)(=O)N1CCN(Cc2cc3nc(-c4cccc5[nH]ncc45)nc(N4CCOCC4)c3s2)CC1 [Pictilisib] (partner 1 µM)
In short: (§1)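 Five library-drug doses in √10 steps were combined with a fixed anchor-drug dose, or a single drug was given alone, by pin tool to lung cancer cell lines in 1536-well plates the day after seeding. Nuclei were stained and counted after 5 days. Relative viability is the nuclei count in treated wells over that in vehicle wells, taken as the median of duplicate plates.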

[1] = compound: C1COCCN1C2=NC(=NC3=C2OC4=C3C=CC=N4)C5=CC(=CC=C5)NC(=O)C6=CN=C(C=C6)N + Nc1ncn([C@H]2C[C@H](O)[C@@H](CO)O2)c(=O)n1 [Decitabine] (partner 2 µM)
In short: as §1

[2] = compound: C1COCCN1C2=NC(=NC3=C2OC4=C3C=CC=N4)C5=CC(=CC=C5)NC(=O)C6=CN=C(C=C6)N + Cc1nc(Nc2ncc(C(=O)Nc3c(C)cccc3Cl)s2)cc(N2CCN(CCO)CC2)n1 [Dasatinib] (partner 0.075 µM)
In short: as §1

SGI-1776 + Navitoclax = compound: CN1CCC(CNc2ccc3ncc(-c4cccc(OC(F)(F)F)c4)n3n2)CC1 [SGI-1776] + CC1(C)CCC(c2ccc(Cl)cc2)=C(CN2CCN(c3ccc(C(=O)NS(=O)(=O)c4ccc(N[C@H](CCN5CCOCC5)CSc5ccccc5)c(S(=O)(=O)C(F)(F)F)c4)cc3)CC2)C1 [Navitoclax] (partner 0.5 µM)
In short: as §1

Work on UMC-11 yielded a relative viability (Entinostat + Pictilisib; first compound 0.02 µM) of 0.865, a relative viability (Entinostat + Pictilisib; first compound 0.06325 µM) of 0.848 and a relative viability (Entinostat + Pictilisib; first compound 0.2 µM) of 0.836. The relative viability (Entinostat + Pictilisib; first compound 0.6325 µM) was 0.144, the relative viability (Entinostat + Pictilisib; first compound 2 µM) was 0.136 and the relative viability ([1]; first compound 0.02 µM) was 0.582. It also gave a relative viability ([1]; first compound 0.06325 µM) of 0.537, a relative viability ([1]; first compound 0.2 µM) of 0.551 and a relative viability ([1]; first compound 0.6325 µM) of 0.537. For the same cell line, the relative viability ([1]; first compound 2 µM) was 0.573, the relative viability ([2]; first compound 0.02 µM) was 0.454 and the relative viability ([2]; first compound 0.06325 µM) was 0.519. The relative viability ([2]; first compound 0.2 µM) was 0.514, the relative viability ([2]; first compound 0.6325 µM) was 0.527 and the relative viability ([2]; first compound 2 µM) was 0.266. For the same cell line, the relative viability (SGI-1776 + Navitoclax; first compound 0.08 µM) was 0.265, the relative viability (SGI-1776 + Navitoclax; first compound 0.8 µM) was 0.32 and the relative viability (SGI-1776 + Navitoclax; first compound 2.53 µM) was 0.275. It also gave a relative viability (SGI-1776 + Navitoclax; first compound 8 µM) of 0.264.
